Source: patent US20170049843A1, “Hepatocyte Growth Factor Mimics as Therapeutic Agents” (WASHINGTON STATE UNIVERSITY, priority 2011, published 2017)
Entries after “also recorded” stand apart in the source; their conditions may differ. Where a SMILES comes first, the peptide text is derived from it. [ ]: non-standard residue; d: D form. The star is where a group is joined. Nle = CCCC[C@H](N)C(=O)O; Hexanoyl = CCCCCC(=O)*; Ahx = NCCCCCC(=O)O

Key:
scopolamine treated rats = experiment: Morris water maze, scopolamine amnesia model; format: in vivo, rat
HGF = target: T1, HGF (Homo sapiens, UniProt P14210); experiment: HGF dimerization; format: biochemical; conditions: Dihexa, 30 minutes in the presence of heparin
T1 construct: purchased R&D Systems (Minneapolis, Minn.)
Protocol: HGF dimerization was assessed using PAGE followed by silver staining (Kawas et al., 2011). Human HGF at a concentration of 0.08 ng/μl with or without 6-AH analogs was incubated with heparin at a final concentration of 5 μg/ml. Loading buffer was then added to each sample and the mixture separated by native PAGE using gradient Criterion XT precast gels (4-12% Bis-Tris; Biorad Laboratories, Hercules, Calif.). Next the gel was silver stained for the detection of the HGF monomers and dimers. Bands were quantitated from digital images using a UVP phosphoimager (Upland, Calif.).

hippocampal neurons [1] = experiment: Spinogenesis in mRFP-β-actin transfected dissociated hippocampal neurons; format: cell-based, rat; conditions: 10^−12 M, acute 30 minute application on DIV12; vehicle 17.4
hippocampal neurons [2] = experiment: Protection of hippocampal neurons from oxidative stress (H2O2); format: cell-based; conditions: 100 μM H2O2, 24 hrs, +/− HGF sub-threshold
Protocol: FIG. 47. […] Dissociated hippocampal neurons were treated with 100 μM H2O2 for 24 hrs+/−HGF at sub-threshold concentrations […] and or Dihexa at 2 different concentrations 10^−8M and 10^−8M. (+p<0.05, ++p<0.0I; Mean+/−SEM).

hippocampal neurons [3] = experiment: Dendritic spine head width in hippocampal neurons; format: cell-based, rat; conditions: 10^−12 M; control 0.67 μm
Source text: Neurons were transfected with mRFP-β-actin on day in vitro 6 (DIV6) using LipofectAMINE™ 2000 (Invitrogen) according to the manufacturer's protocol. This protocol yielded the desired 3-5% transfection efficiency thus enabling the visualization of individual neurons. Higher efficiencies obscured the dendritic arbor of individual neurons. Expression of fluorescently tagged actin allowed clear visualization of dendritic spines, as dendritic spines are enriched in actin. On DIV7 the cells were treated with vehicle (H20) or peptides (as described in the text) added to media. […] Slides were dried for at least 20 hours at 4° C. and fluorescent images were obtained with Slidebook 4.2 Digital Microscopy Software driving an Olympus IX81 inverted confocal microscope with a 60× oil immersion lens, NA 1.4 and resolution 0.280 μm Dendritic spine density was measured on primary and secondary dendrites at a distance of at least 150 μm from the soma. Five 50 μm long segments of dendrite from at least 10 neurons per data point were analyzed for each data point reported. […] Dendrite length was determined using the National Institutes of Health's Image J 1.41o program (NIH, Bethesda, Md.) and the neurite tracing program Neuron J (Meijering, Jacob et al. 2004) Spines were manually counted. […]

Blood stability studies = format: in vitro ADME, rat; conditions: data not shown
[4] = Brain uptake of 3H-dihexa after carotid infusion; format: in vivo, rat; conditions: 30 minutes after infusion
Protocol: FIG. 32. […] Rats fitted with a carotid cannula were anesthetized and infused with 0.5 ml of isotonic saline containing 10 μCi of ^3H-dihexa and 2 μCi ^14C-Inulin, a vascular marker. Thirty minutes after infusion the rats were decapitated, the brains removed, and various brain regions dissected. The tissues were then weighed and solubilized with NCS, an organic protein solubilizing agent, and 10 ml of scintillation was added. Samples were counted with a scintillation counter using two different windows to quantitate both ^3H and ^14C counts. ^3H/^14C ratios were determined so that blood derived dihexa contamination of tissues could be determined. […] The average ^3H/^14C for blood was 1687. Mean+/−S.E.M.: n=4.

[5] = Microsomal metabolism, rat liver microsomes; format: in vitro ADME; conditions: pooled rat liver microsomes, n=3
6-OHDA rat = experiment: 6-OHDA lesioned rat, motor tests; format: in vivo
Protocol: FIG. 48. Dihexa restores performance in the rope hang test. After 2 weeks of 6-OHDA lesion, rats were treated with either 0.5 mg/kg or equivalent volumes of the vehicle ip.
FIG. 49. […] Baseline was calculated from 4 naïve animals to get the pre-op baseline for normal un-lesioned animals. 2 animals were lesioned with 6-OHDA in the right Hemisphere. 14 days post-op, treatment with vehicle started. 2 animals were lesioned with 6-OHDA in the right Hemisphere. 14 days post-op, treatment with Dihexa started. Animals were tested every other day. Dosing regimen (2 mg/kg by oral gavage/48 hrs).

hippocampal neurons [6] = experiment: Protection of hippocampal neurons from growth factor deprivation; format: cell-based; conditions: starved 72 hrs, +/− HGF sub-threshold
Protocol: FIG. 46. […] Dissociated hippocampal neurons were starved for 72 hrs+/−HGF at sub-threshold concentrations […] and or Dihexa at 2 different concentrations 10^−8M and 10^−8M. (**p<0.001.*** p<0.000I; Mean+/−SEM).

aged rats = experiment: Morris water maze, aged rat model; format: in vivo; conditions: oral 2 mg/kg/day, 8 days, vs untreated
Protocol: FIG. 37. Dihexa improves spatial learning in aged rats. Group latencies to find the submerged platform in the Morris water maze task of spatial memory are shown. Five minutes before beginning testing 24 month old mixed sex (3 male and 3 female/group) Sprague Dawley rats were administered […] (2 mg/kg) orally by gavage (suspension in isotonic NaCl), on a daily basis. There were 5 trials per day for 8 days. The latency to find the pedestal was considered a measure of learning and memory. […] Swim speed was determined from these values.

[7] = icv, scopolamine 70 nmol, Dihexa 300 pmol, Hinge 300 pmol, vehicle 43.0 s

T1 sequence (P14210 32-728): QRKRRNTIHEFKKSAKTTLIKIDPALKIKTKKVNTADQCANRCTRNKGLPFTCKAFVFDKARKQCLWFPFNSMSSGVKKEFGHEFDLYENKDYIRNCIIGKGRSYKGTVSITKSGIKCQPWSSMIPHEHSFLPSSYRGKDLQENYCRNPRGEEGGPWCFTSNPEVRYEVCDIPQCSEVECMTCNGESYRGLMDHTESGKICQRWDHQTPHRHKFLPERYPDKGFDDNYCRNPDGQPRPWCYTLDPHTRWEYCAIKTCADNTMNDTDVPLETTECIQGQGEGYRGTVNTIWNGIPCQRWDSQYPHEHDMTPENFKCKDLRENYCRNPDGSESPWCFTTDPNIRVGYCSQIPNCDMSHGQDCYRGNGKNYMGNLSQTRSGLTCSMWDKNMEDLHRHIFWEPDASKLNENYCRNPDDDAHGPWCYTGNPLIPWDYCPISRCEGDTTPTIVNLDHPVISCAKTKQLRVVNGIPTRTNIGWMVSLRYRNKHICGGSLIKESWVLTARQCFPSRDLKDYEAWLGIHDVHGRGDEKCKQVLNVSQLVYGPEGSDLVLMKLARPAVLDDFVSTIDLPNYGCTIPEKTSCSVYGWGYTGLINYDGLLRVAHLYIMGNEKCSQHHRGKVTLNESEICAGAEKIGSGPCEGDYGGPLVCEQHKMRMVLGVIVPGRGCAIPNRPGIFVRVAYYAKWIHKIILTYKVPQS

CCCCCC(=O)N[C@@H](Cc1ccc(O)cc1)C(=O)N[C@H](C(=O)NCCCCCC(N)=O)[C@@H](C)CC [Dihexa, N-hexanoic-Tyr-Ile-(6)-aminohexanoic amide] (Hexanoyl-Tyr-Ile-[Ahx]-NH2)
latency to find the pedestal in the water maze (reversal of scopolamine deficits) (scopolamine treated rats; ICV 10 pmoles (low dose)): but not 10 pmoles
latency to find the pedestal in the water maze (reversal of scopolamine deficits) (scopolamine treated rats; ICV 100 pmoles (high dose), daily, 8 days): reversed scopolamine-dependent learning deficits; also recorded: completely overcome the scopolamine deficits
group latency to find the submerged platform (scopolamine treated rats; icv 0.1 nmol after scopolamine, days 5-8): significantly improved performance
group latency to find the submerged platform (scopolamine treated rats; icv 1 nmol after scopolamine): different from the scopolamine group
time in the target quadrant, day 9 probe trial (scopolamine treated rats; icv 1 nmol after scopolamine, vs vehicle control): not different
mean latency to find the pedestal, final day of training (scopolamine treated rats; [7]): 62.3 s
mean latency to find the pedestal, fourth day of training (scopolamine treated rats; [7]): 63.0 s
mean latency to find the pedestal, day one of training (scopolamine treated rats; icv, scopolamine 70 nmol, Dihexa 300 pmol, Hinge 300 pmol, vehicle 89.3 s): 115.2 s
group latency to find the submerged platform (scopolamine treated rats; ip 0.05 mg/kg after scopolamine): not different than the scopolamine group
group latency to find the submerged platform (scopolamine treated rats; ip 0.25 mg/kg after scopolamine): different than the scopolamine
group latency to find the submerged platform (scopolamine treated rats; ip 0.50 mg/kg after scopolamine, 0.5 mg/kg): different than the scopolamine; also recorded: not different than the vehicle control group
time in the target quadrant, day 9 probe trial (scopolamine treated rats; ip delivery, each dose group vs scopolamine→PBS): Each of the treatment groups was different than the scopolamine
latency to find the pedestal in the water maze (reversal of scopolamine deficits) (scopolamine treated rats; oral 1.25 mg/kg (low dose), days 3-8): partially reversed
latency to find the pedestal in the water maze (reversal of scopolamine deficits) (scopolamine treated rats; oral 2 mg/kg/day (high dose), 2 mg/kg/day): no different than controls; also recorded: completely overcome the scopolamine deficits; also recorded: completely reversed the scopolamine-dependent learning deficit
time in the target quadrant, day 9 probe trial (scopolamine treated rats; oral delivery, both dose groups vs scopolamine→PBS): Both of the treatment groups were different than the scopolamine
inhibition of HGF dimerization (HGF): blocks HGF dimerization
mean spine numbers per 50 μm dendrite length (hippocampal neurons [1]): 23.9 spines per 50 μm dendrite length
protection of neurons from oxidative stress (hippocampal neurons [2]): protects neurons from oxidative stress
average spine head width (hippocampal neurons [3]): 0.80 μm
stable in the blood (Blood stability studies): over 5 hours
concentration of dihexa in brain regions compared to blood ([4]; 3H/14C ratios): all brain regions concentrated dihexa
average 3H/14C ratio for blood ([4]; 10 μCi 3H-dihexa and 2 μCi 14C-Inulin, n=4): 1687
average half-life, Phase I metabolism [5]: 8.49 h
average intrinsic clearance (Clin) [5]: 2.72 µL/min/mg
performance in the rope hang test (6-OHDA rat; 0.5 mg/kg ip, 2 weeks after 6-OHDA lesion): completely restored the performance
motor deficits in the 6-OHDA rat (6-OHDA rat; 2 mg/kg by oral gavage/48 hrs, from 14 days post-op): reverses motor deficits
protection of neurons from growth factor deprivation (hippocampal neurons [6]): protects neurons from growth factor deprivation
water maze performance (latency) of aged rats (aged rats): preformed significantly better in the water maze than untreated rats; also recorded: performed significantly better than untreated controls; also recorded: significantly different than that of the non-treated rats

CCCC[C@H](N)C(=O)N[C@@H](Cc1ccc(O)cc1)C(=O)N[C@H](C(=O)N[C@@H](Cc1c[nH]cn1)C(=O)N1CCC[C@H]1C(=O)N[C@@H](Cc1ccccc1)C(=O)O)[C@@H](C)CC [Nle1-AngIV, reference compound] (H-[Nle]YIHPF-OH; N-terminus and C-terminus assumed)
average spine head width (hippocampal neurons [3]): 0.87 μm
